Patent US6737383B1, “Herbicidal oxadiazolidines” (priority 1999, dated 2004)

Key:
bedstraw = assay: Test B pre/postemergence bedstraw; assay type: in vivo, Galium aparine
Procedure, shortened: (§1)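 Herbicidal effect was estimated by eye on a ten-point control scale after plants spent twelve to sixteen days in a greenhouse following soil or foliar treatment. Foliar sprays targeted plants at one to four leaves; all doses were formulated in a non-phytotoxic solvent with surfactant.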

blackgrass = assay: Test B pre/postemergence blackgrass; assay type: in vivo, Alopecurus myosuroides
Procedure, shortened: as §1

surinam grass = assay: Test B pre/postemergence surinam grass; assay type: in vivo, Brachiaria decumbens
Procedure, shortened: as §1

corn = assay: Test B pre/postemergence corn; assay type: in vivo, Zea mays
Procedure, shortened: as §1

crabgrass = assay: Test B pre/postemergence crabgrass; assay type: in vivo, Digitaria sanguinalis
Procedure, shortened: as §1

giant foxtail = assay: Test B pre/postemergence giant foxtail; assay type: in vivo, Setaria faberii
Procedure, shortened: as §1

rape = assay: Test B pre/postemergence rape; assay type: in vivo, Brassica napus
Procedure, shortened: as §1

sugar beet = assay: Test B pre/postemergence sugar beet; assay type: in vivo, Beta vulgaris
Procedure, shortened: as §1

velvetleaf = assay: Test B pre/postemergence velvetleaf; assay type: in vivo, Abutilon theophrasti
Procedure, shortened: as §1

wheat = assay: Test B pre/postemergence wheat; assay type: in vivo, Triticum aestivum
Procedure, shortened: as §1

wild oat = assay: Test B pre/postemergence wild oat; assay type: in vivo, Avena fatua
Procedure, shortened: as §1

purple nutsedge = assay: Test B pre/postemergence purple nutsedge; assay type: in vivo, Cyperus rotundus
Procedure, shortened: as §1

rice = assay: Test B flood test rice; assay type: in vivo, Oryza sativa
Procedure, shortened: (§2)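 Each value is a visual injury score relative to controls, with 10 meaning complete control and 0 no effect. Evaluation took place twelve to sixteen days after the 2-leaf-stage plants were treated and kept in the greenhouse.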

smallflower flatsedge = assay: Test B flood test smallflower flatsedge; assay type: in vivo, Cyperus difformis
Procedure, shortened: as §2

duck salad = assay: Test B flood test duck salad; assay type: in vivo, Heteranthera limosa
Procedure, shortened: as §2

bamyardgrass = assay: Test B flood test barnyardgrass; assay type: in vivo, Echinochloa crus-galli
Procedure, shortened: as §2

[1] = Postemergence, Rate 31 g/ha, visual rating, scale 0 to 10 (0 no effect, 10 complete control)
[2] = Preemergence, Rate 31 g/ha, visual rating, scale 0 to 10 (0 no effect, 10 complete control)
[3] = Preemergence, Rate 62 g/ha, scale of 0 to 10 where 0 is no effect and 10 is complete control
[4] = Rate 16 g/ha, Postemergence, scale 0 to 10, 0 no effect, 10 complete control
[5] = Rate 16 g/ha, Preemergence, scale 0 to 10, 0 no effect, 10 complete control
[6] = Rate 62 g/ha, Postemergence, scale 0 to 10 (0 no effect, 10 complete control)
[7] = Rate 125 g/ha, Postemergence, scale of 0 to 10 where 0 is no effect and 10 is complete control
[8] = Rate 125 g/ha, Preemergence, scale of 0 to 10 where 0 is no effect and 10 is complete control
[9] = Rate 16 g/ha, head printed Pre-emergence (flood test species), scale 0 to 10, 0 no effect, 10 complete control
[10] = Rate 31 g/ha, Pre-emergence section (flood test species), scale 0 to 10
[11] = Rate 62 g/ha, headed Pre-emergence (flood test species), scale 0 to 10 (0 no effect, 10 complete control)
[12] = Rate 125 g/ha, Pre-emergence, flood test species, scale 0 to 10 where 0 is no effect and 10 is complete control
[13] = Rate 250 g/ha, Pre-emergence, flood-test species, scale 0 to 10, 0 is no effect, 10 is complete control
[14] = Rate 500 g/ha, Pre-emergence, flood test species, scale 0 to 10 (0 no effect, 10 complete control)

## C=CCCCn1c(=O)on(C(=O)N(c2ccc(F)cc2)C(C)C)c1=O [Compound 291]
bedstraw; [1]
  Bedstraw plant response rating: 0
bedstraw; [2]
  Bedstraw plant response rating: 0
bedstraw; [3]
  Bedstraw plant response rating: 0
bedstraw; [4]
  Bedstraw plant response rating: 0
bedstraw; [5]
  Bedstraw plant response rating: 0
bedstraw; [6]
  Bedstraw plant response rating: 0
bedstraw; [7]
  Bedstraw plant response rating: 3
bedstraw; [8]
  Bedstraw plant response rating: 0
blackgrass; [1]
  Blackgrass plant response rating: 0
blackgrass; [2]
  Blackgrass plant response rating: 0
blackgrass; [3]
  Blackgrass plant response rating: 0
blackgrass; [4]
  Blackgrass plant response rating: 0
blackgrass; [5]
  Blackgrass plant response rating: 0
blackgrass; [6]
  Blackgrass plant response rating: 1
blackgrass; [7]
  Blackgrass plant response rating: 2
blackgrass; [8]
  Blackgrass plant response rating: 8
Surinam grass; [1]
  B. signalgrass plant response rating: 0
Surinam grass; [2]
  B. signalgrass plant response rating: 0
Surinam grass; [3]
  B. signalgrass plant response rating: 0
Surinam grass; [4]
  B. signalgrass plant response rating: 0
Surinam grass; [5]
  B. signalgrass plant response rating: 0
Surinam grass; [6]
  B. signalgrass plant response rating: 0
Surinam grass; [7]
  B. signalgrass plant response rating: 0
Surinam grass; [8]
  B. signalgrass plant response rating: 3
corn; [1]
  Corn plant response rating: 0
corn; [2]
  Corn plant response rating: 0
corn; [3]
  Corn plant response rating: 0
corn; [4]
  Corn plant response rating: 0
corn; [5]
  Corn plant response rating: 0
corn; [6]
  Corn plant response rating: 0
corn; [7]
  Corn plant response rating: 0
corn; [8]
  Corn plant response rating: 0
crabgrass; [1]
  Crabgrass plant response rating: 0
crabgrass; [2]
  Crabgrass plant response rating: 0
crabgrass; [3]
  Crabgrass plant response rating: 0
crabgrass; [4]
  Crabgrass plant response rating: 0
crabgrass; [5]
  Crabgrass plant response rating: 0
crabgrass; [6]
  Crabgrass plant response rating: 0
crabgrass; [7]
  Crabgrass plant response rating: 0
crabgrass; [8]
  Crabgrass plant response rating: 0
Giant foxtail; [1]
  Giant foxtail plant response rating: 0
Giant foxtail; [2]
  Giant foxtail plant response rating: 8
Giant foxtail; [3]
  Giant foxtail plant response rating: 8
Giant foxtail; [4]
  Giant foxtail plant response rating: 0
Giant foxtail; [5]
  Giant foxtail plant response rating: 7
Giant foxtail; [6]
  Giant foxtail plant response rating: 0
Giant foxtail; [7]
  Giant foxtail plant response rating: 0
Giant foxtail; [8]
  Giant foxtail plant response rating: 9
rape; [1]
  Rape plant response rating: 0
rape; [2]
  Rape plant response rating: 0
rape; [3]
  Rape plant response rating: 0
rape; [4]
  Rape plant response rating: 0
rape; [5]
  Rape plant response rating: 0
rape; [6]
  Rape plant response rating: 0
rape; [7]
  Rape plant response rating: 1
rape; [8]
  Rape plant response rating: 0
Sugar beet; [1]
  Sugarbeets plant response rating: 0
Sugar beet; [2]
  Sugarbeets plant response rating: 0
Sugar beet; [3]
  Sugarbeets plant response rating: 0
Sugar beet; [4]
  Sugarbeets plant response rating: 0
Sugar beet; [5]
  Sugarbeets plant response rating: 0
Sugar beet; [6]
  Sugarbeets plant response rating: 0
Sugar beet; [7]
  Sugarbeets plant response rating: 0
Sugar beet; [8]
  Sugarbeets plant response rating: 0
velvetleaf; [1]
  Velvetleaf plant response rating: 0
velvetleaf; [2]
  Velvetleaf plant response rating: 0
velvetleaf; [3]
  Velvetleaf plant response rating: 0
velvetleaf; [4]
  Velvetleaf plant response rating: 0
velvetleaf; [5]
  Velvetleaf plant response rating: 0
velvetleaf; [6]
  Velvetleaf plant response rating: 0
velvetleaf; [7]
  Velvetleaf plant response rating: 0
velvetleaf; [8]
  Velvetleaf plant response rating: 0
wheat; [1]
  Wheat plant response rating: 0
wheat; [2]
  Wheat plant response rating: 0
wheat; [3]
  Wheat plant response rating: 0
wheat; [4]
  Wheat plant response rating: 0
wheat; [5]
  Wheat plant response rating: 0
wheat; [6]
  Wheat plant response rating: 0
wheat; [7]
  Wheat plant response rating: 0
wheat; [8]
  Wheat plant response rating: 0
Wild oat; [1]
  Wild oats plant response rating: 0
Wild oat; [2]
  Wild oats plant response rating: 0
Wild oat; [3]
  Wild oats plant response rating: 0
Wild oat; [4]
  Wild oats plant response rating: 0
Wild oat; [5]
  Wild oats plant response rating: 0
Wild oat; [6]
  Wild oats plant response rating: 0
Wild oat; [7]
  Wild oats plant response rating: 0
Purple nutsedge; [1]
  Nutsedge plant response rating: 0
Purple nutsedge; [2]
  Nutsedge plant response rating: 0
Purple nutsedge; [3]
  Nutsedge plant response rating: 0
Purple nutsedge; [4]
  Nutsedge plant response rating: 0
Purple nutsedge; [5]
  Nutsedge plant response rating: 0
Purple nutsedge; [6]
  Nutsedge plant response rating: 0
Purple nutsedge; [7]
  Nutsedge plant response rating: 0
Purple nutsedge; [8]
  Nutsedge plant response rating: 0
rice; [9]
  Rice plant response rating: 0
rice; [10]
  Rice plant response rating: 0
rice; [11]
  Rice plant response rating: 0
rice; [12]
  Rice plant response rating: 2
rice; [13]
  Rice plant response rating: 0
rice; [14]
  Rice plant response rating: 0
Smallflower flatsedge; [9]
  S. Flatsedge plant response rating: 0
Smallflower flatsedge; [10]
  S. Flatsedge plant response rating: 0
Smallflower flatsedge; [11]
  S. Flatsedge plant response rating: 0
Smallflower flatsedge; [12]
  S. Flatsedge plant response rating: 0
Smallflower flatsedge; [13]
  S. Flatsedge plant response rating: 0
Smallflower flatsedge; [14]
  S. Flatsedge plant response rating: 0
Duck salad; [9]
  Ducksalad plant response rating: 0
Duck salad; [10]
  Ducksalad plant response rating: 0
Duck salad; [11]
  Ducksalad plant response rating: 0
Duck salad; [12]
  Ducksalad plant response rating: 0
Duck salad; [13]
  Ducksalad plant response rating: 0
Duck salad; [14]
  Ducksalad plant response rating: 0
bamyardgrass; [9]
  Barnyardgrass plant response rating: 0
bamyardgrass; [10]
  Barnyardgrass plant response rating: 2
bamyardgrass; [11]
  Barnyardgrass plant response rating: 2
bamyardgrass; [12]
  Barnyardgrass plant response rating: 4
bamyardgrass; [13]
  Barnyardgrass plant response rating: 4
bamyardgrass; [14]
  Barnyardgrass plant response rating: 6
